Values joined by “and” are separate entries in the source; they are usually repeats but may differ in a detail not shown here. Identical values can stand only once.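 How tested: cells in 96-well plates exposed to compound for 48 hours at five concentrations. GI50 is the concentration that inhibits growth by half. TGI denotes the concentration required for complete inhibition of growth.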
Legend:
Assay in all cases: DTP human tumour cell line panel, 48 h
NCI-H522 lung = test system: NCI-H522 lung
K-562 leukemia = test system: K-562 leukemia
M14 melanoma = test system: M14 melanoma
CAKI-1 renal = test system: CAKI-1 renal
SK-MEL-5 melanoma = test system: SK-MEL-5 melanoma
EKVX NSCLC = test system: EKVX NSCLC
UACC-62 melanoma = test system: UACC-62 melanoma
SW-620 colon = test system: SW-620 colon
OVCAR-4 ovarian = test system: OVCAR-4 ovarian
SK-MEL-28 melanoma = test system: SK-MEL-28 melanoma

SMILES	GI50 (NCI-H522 lung) [µM]	TGI (NCI-H522 lung)	GI50 (K-562 leukemia) [µM]	TGI (K-562 leukemia) [µM]	GI50 (M14 melanoma) [µM]	TGI (M14 melanoma) [µM]	GI50 (CAKI-1 renal) [µM]	TGI (CAKI-1 renal) [µM]	GI50 (SK-MEL-5 melanoma) [µM]	TGI (SK-MEL-5 melanoma) [µM]	GI50 (EKVX NSCLC) [µM]	TGI (EKVX NSCLC) [µM]	GI50 (UACC-62 melanoma) [µM]	TGI (UACC-62 melanoma)	GI50 (SW-620 colon) [µM]	TGI (SW-620 colon) [µM]	GI50 (OVCAR-4 ovarian) [µM]	TGI (OVCAR-4 ovarian) [µM]	GI50 (SK-MEL-28 melanoma) [µM]	TGI (SK-MEL-28 melanoma) [µM]
COc1cccc(C2NC(=S)NC(C)=C2C(=O)Nc2ccc(Cl)c(Cl)c2)c1 (configuration not stated)	18.3	> 50 µM	16.3	> 50	10.3	19.3	9.69	22	8.43	16.1	5.63	14.3	8.2	15.9 µM	22.3	> 50	12.8	> 50	13.3	47.7
Nc1ccc(S(=O)(=O)Nc2cnc3c(Cl)cccc3n2)cc1	15.2	75 µM and 259 µM	36.4	> 750	–	> 750	99.2	> 698	–	> 627	–	712	56.3	> 93.3 µM and 122 µM	52.3	> 678	> 78.1	> 672	> 69.4	723
Cc1cc(Cl)ccc1Nc1nc(C(F)(F)F)ccc1C(=O)N1CCN(c2cccc(Cl)c2)CC1	> 100	> 100 µM	19.7	> 100	> 100	> 100	90.7	> 100	65.6	> 100	> 100	> 100	> 100	> 100 µM	> 100	> 100	30	> 100	> 100	> 100
COC(OC)c1cc2c(cc1C(=O)[C@@]13CCC[C@@H]1NC(=O)O3)OCO2	–	> 100 µM	–	> 100	–	> 100	–	> 100	–	> 100	–	> 100	–	> 100 µM	–	> 100	–	> 100	–	> 100
N=C1C=C(N)C(=O)c2[nH]c(=O)ccc21	–	3.54 µM	–	4.4	–	28.7	–	13	–	3.22	–	3.55	–	4.61 µM	–	6.7	–	2.74	–	36.8
COc1cc(/C=C(\C#N)C(N)=C(C#N)C#N)cc(O)c1O	–	> 100 µM	–	> 100	–	> 100	–	> 100	–	> 100	–	> 100	–	> 100 µM	–	> 100	–	> 100	–	> 100
CCOC(=O)C1COc2cc(-c3cc(=O)c4ccccc4o3)ccc2O1 (configuration not stated)	–	> 100 µM	–	> 100	–	> 100	–	> 100	–	> 100	–	> 100	–	> 100 µM	–	> 100	–	> 100	–	> 100
COC(=O)/C(=N/NC(N)=O)C(C(=O)OC)C(=O)C(=O)Nc1ccc(Cl)cc1 (configuration not stated)	–	> 100 µM	–	> 62.6	–	> 100	–	> 100	–	> 100	–	> 100	–	> 100 µM	–	> 100	–	> 100	–	> 100

Reference: PubChem BioAssay (NCI)
